Results on six molecules are retold here after patent US8980586B2, “Compound and method for producing same” (The Ritsumeikan Trust, priority 2011, dated 2015).

In brackets after ≈: the same amount, converted by molar mass.

Data set [1] in a line: Solubility (physicochemical properties). As to conditions: for Solubility in methanol, dimethyl sulfoxide (DMSO), and chloroform: organic solvents.
A further data set relates to Phoma sp. Kind of data set: Antimicrobial activity against eukaryotic microorganisms, 96-well microplate (MIC). The data set is classed as cell-based. As to conditions: YPD medium, 30° C., 30 hours. Here is the method: (§1) The activity against eukaryotic microorganisms was measured with a 96-well microplate in the following manner. Compound (I-1), (I0-B), (I0-C), (I0-D), or (I-2) was suspended in 8% methanol water to prepare a sample suspension having a concentration of 4000, 2000, 1000, 500, 250, 125, 62.5, 32, 16, 8, or 4 μg/mL. Pyceze was diluted with water to prepare Pyceze aqueous solutions having the above concentrations. 50 μl of each of the sample solutions having the above concentrations, 50 μl of sterilized 4-fold concentrated liquid medium, and 100 μl of spore suspension or bacterial suspension of the test organisms prepared beforehand were poured in each well of the 96-well microplate. The experiments were performed in duplicate. […] The test organisms and the culture conditions were as follows.
Phoma sp.: YPD medium (yeast extract: 1%, peptone: 2%, glucose: 2%, pH: 6.5), 30° C., 30 hours; and […]

In a further data set the test system is Escherichia coli. Description: Activity against prokaryotic microorganisms, paper disc method on agar plate. The data set is classed as cell-based. As to conditions: LB agar, 37° C. overnight. The procedure: (§2) The activity against prokaryotic microorganisms was measured by the paper disc method on an agar plate medium into which test organisms were kneaded. Staphylococcus aureus, Bacillus subtilis, or Escherichia coli was inoculated in 3 mL of sterilized LB medium (glucose: 0.5%, polypeptone: 1%, yeast extract: 0.5%, NaCl: 0.5%, pH: 7.2) in a test tube, and cultured at 37° C. overnight. The pre-culture solution (1%) was inoculated in a sterilized LB agar medium (agar: 1.5%) to prepare an agar assay plate. Compound (I-1) or (I-2) was dissolved in methanol to prepare a sample solution having a concentration of 1000, 500, 250, 125, 62.5, 32, 16, 8, 4, 2, or 1 μg/mL. The sample solution was infiltrated into a paper disc (ADVANTEC, diameter: 8 mm, thick), followed by air-drying. The paper disc was placed on the agar assay plate, and cultured at 37° C. overnight.

The test system of the next data set is Staphylococcus aureus. The description is as above. The data set is classed as cell-based. As to conditions: LB agar, 37° C. overnight, concentration of sample solution. Here is the method: as §2
The next data set deals with Bacillus subtilis. The description is as above. The data set is classed as cell-based. As to conditions: LB agar, 37° C. overnight, concentration of sample solution. Here is the method:
as §2

A further data set has as its system Saprolegnia parasitica. Kind of data set: Antimicrobial activity against eukaryotic microorganisms, 96-well microplate (MIC). The data set is classed as cell-based. As to conditions: GY medium, 18° C., 24 hours. Here is the method: as §1
Saprolegnia parasitica: GY medium (glucose: 1%, yeast extract: 0.25%, pH: 6.5), 18° C., 24 hours;

Data set [2] relates to water flea (Daphnia pulex). Kind of data set: Water flea swimming ability inhibitory activity test. The data set is classed as in vivo. To be noted: 24 hours incubation, 20° C.; probit method. The procedure: The number of water fleas was adjusted so that each 10 mL of aerated water contained 5 fleas. The water fleas were all 24 hours old after birth or younger. The aerated water was prepared by aerating tap water, which had been filtered by a water cleaner, for at least 24 hours. A sample solution obtained by dissolving Compound (I-1) or (I-2) in methanol, or a Pyceze aqueous solution obtained by diluting Pyceze with water, was added to the water flea breeding water under stirring so that the final concentration of the sample or Pyceze became 100, 10, 1, 0.1, or 0.01 μg/mL. After incubation for 24 hours (20° C., 17 μmol photons/m^2/s, Light:Dark=16:8), the number of water fleas swimming in the breeding water was counted. The water fleas were divided into multiple groups, each consisting of 5 fleas. Using 2 groups each, an experiment was performed with the test liquids having the aforementioned different final concentrations. From the obtained results, IC50 values were calculated according to the probit method using SPSS statistical software.

In another data set the test system is edible oysters. To be noted: cited from earlier work.
In the next data set the test system is green algae. As to conditions: cited from earlier work.
In another data set the test system is water fleas. To be noted: cited from earlier work.

For the molecule `CC1OC(OC2C(O)CC(c3ccc4c(c3O)C(=O)C3=C(C4=O)C4(O)C(=O)CC(C)(OC5C=CC(=O)C(C)O5)CC4(O)C=C3)OC2C)C=CC1=O` (centres unmarked) [Compound I0-A], in [1], the “Solubility in methanol, dimethyl sulfoxide (DMSO), and chloroform” value (from here on “Solubility in methanol”) is “Soluble”; the Solubility in water result is listed as “Slightly soluble”.

Consider `CC1OC(OC2CCC(OC3C(O)CC(c4ccc5c(c4O)C(=O)C4=C(C5=O)C5(O)C(=O)CC(C)(OC6CCC(=O)C(C)O6)CC5(O)C=C4)OC3C)OC2C)C=CC1=O` (centres unmarked) [Compound I0-D], for which, in data set [1], the “Solubility in methanol” value is “Soluble”; the Solubility in water entry is “Slightly soluble”. Moreover, the “MIC with respect to Phoma sp.” value with Phoma sp. turned out to be 500 µg/mL. The “inhibition ring formation for Escherichia coli” value (“inhibition ring formation” for short) in the data set with Escherichia coli is reported as “an inhibition ring was not observed”. Further, in the data set with Staphylococcus aureus, the “minimum inhibitory concentration with respect to Staphylococcus aureus” value amounted to 62.5 µg/mL. In the data set with Bacillus subtilis, the “minimum inhibitory concentration with respect to Bacillus subtilis” value was found to be 62.5 µg/mL. Further, in the data set on Saprolegnia parasitica, the “minimum inhibitory concentration (MIC) with respect to Saprolegnia parasitica” value (“minimum inhibitory concentration (MIC)” below) was found to be 1 µg/mL.

For the molecule `CC1OC(OC2CCC(OC3C(O)CC(c4ccc5c(c4O)C(=O)C4=C(C5=O)C5(O)C(=O)CC(C)(OC6C=CC(=O)C(C)O6)CC5(O)C=C4)OC3C)OC2C)C=CC1=O` (centres unmarked) [Compound I0-E], in [1], the “Solubility in methanol” value was “Soluble”; the Solubility in water entry is “Slightly soluble”.

Consider `CC1OC(OC2C(O)CC(c3ccc4c(c3O)C(=O)C3=C(C4=O)C4(O)C(=O)CC(C)(OC5C=CC(=O)C(C)O5)CC4(O)C=C3)OC2C)C=CC1=O` (centres unmarked) [Compound I-1], for which the “50% swimming ability inhibitory concentration with respect to water flea (Daphnia pulex)” value in [2] turned out to be 2.58 µg/mL. In addition, the “MIC with respect to Phoma sp.” value in the data set on Phoma sp. is 500 µg/mL. Moreover, in the data set with Escherichia coli, the “inhibition ring formation” value was “an inhibition ring was not observed”. Besides, the “minimum inhibitory concentration with respect to Staphylococcus aureus” value in the data set on Staphylococcus aureus amounted to 31.2 µg/mL. Besides, the “minimum inhibitory concentration with respect to Bacillus subtilis” value with Bacillus subtilis amounted to 62.5 µg/mL. Also, the “minimum inhibitory concentration (MIC)” value in the data set with Saprolegnia parasitica amounted to 0.0039 µg/mL.

As for `CC1OC(OC2CCC(OC3C(O)CC(c4ccc5c(c4O)C(=O)C4=C(C5=O)C5(O)C(=O)CC(C)(OC6C=CC(=O)C(C)O6)CC5(O)C=C4)OC3C)OC2C)C=CC1=O` (centres unmarked) [Compound I-2], the “50% swimming ability inhibitory concentration with respect to water flea (Daphnia pulex)” value in data set [2] was 4.48 µg/mL. Further, the “MIC with respect to Phoma sp.” value in the data set with Phoma sp. stood at 500 µg/mL. The “inhibition ring formation” value in the data set with Escherichia coli was “an inhibition ring was not observed”. For the same molecule, the “minimum inhibitory concentration with respect to Staphylococcus aureus” value in the data set on Staphylococcus aureus stood at 16.0 µg/mL. In the data set on Bacillus subtilis, the “minimum inhibitory concentration with respect to Bacillus subtilis” value came to 8.0 µg/mL. Moreover, the “minimum inhibitory concentration (MIC)” value with Saprolegnia parasitica came out at 0.0078 µg/mL.

With `O=[N+]([O-])C(Br)(CO)CO` [bronopol], the “EC50 (toxicity) in edible oysters” value in the data set on edible oysters was 0.77 µg/mL (≈ 3.85 µM). Also, the “EC50 (toxicity) in green algae” value in the data set with green algae is 0.0537 µg/mL (≈ 0.269 µM). The “EC50 (toxicity) in water fleas” value with water fleas was 1.4 µg/mL (≈ 7 µM).
